Assay: effect of co-administered P-glycoprotein (Pgp) inhibitor on betrixaban exposure
Format: in vivo
Conditions: with concomitant Pgp inhibitor
Protocol: In some embodiments, a P-glycoprotein (Pgp) inhibitor is concomitantly administered to the patient. […] In one aspect, when used together with a Pgp inhibitor, betrixaban is administered at about 40 mg, or alternatively about 35 mg, or 30, or 25, or 20, or 15, or 10 mg daily. The same amount is applicable to patients who experience kidney insufficiency.

COc1ccc(NC(=O)c2ccc(C(=N)N(C)C)cc2)c(C(=O)Nc2ccc(Cl)cn2)c1 [betrixaban, [2-({4-[(dimethylamino)iminomethyl]phenyl}carbonylamino)-5-methoxyphenyl]-N-(5-chloro(2-pyridyl))carboxamide]
exposure of betrixaban: increases the exposure

Source: patent publication US20200016133A1, “PREVENTION AND TREATMENT OF THROMBOSIS IN MEDICALLY ILL PATIENTS” (Portola Pharmaceuticals, Inc., priority 2011, published 2020)
